Reference: US12384741B2, “Lipid nanoparticle compositions for delivering circular polynucleotides” (Orna Therapeutics, Inc., priority 2021, dated 2025)

Assays:
[1] = test system: T cells, myeloid cells, B cells, and NK cells; test: mOX40L expression in splenic immune cells (flow cytometry); type: in vivo, C57BL/6 mice; details: LNP 50:10:38.5:1.5, IL:P 5.7, 1 mg/kg intravenously, 24 hours; vs Lipid 15 of Table 10f
Description: The ionizable lipid: helper lipid: cholesterol: PEG-lipid molar ratio of these LNPs was 50:10:38.5:1.5. Dialysis of the LNPs were performed using PBS. C57BL/6 female mice (6-8 weeks, n=4) were dosed at either LNP comprising Lipid 1 of Table 10e or the Lipid 15 of Table 10f at 1 mg/kg intravenously. At 24 hours, the spleen from the mice were collected for flow cytometry analysis. mOX40L transfection of Lipid 1 of Table 10e and Lipid 15 of Table 10f were compared in T cells, myeloid cells, B cells, and NK cells.

splenic T cells = test: mOX40L expression in splenic T cells; type: in vivo, C57BL/6 mice; details: 1 mg/kg intravenously, 24 hours; IL:P 5.7, 50:10:38.5:1.5
Description: The ionizable lipid: helper lipid: cholesterol: PEG-lipid molar ratio of these LNPs was 50:10:38.5:1.5. C57BL/6 female mice (6-8 weeks, n=4) were dosed at 1 mg/kg intravenously. At 24 hours, the spleen from the mice were collected for flow cytometry analysis, tested for weight loss and measured for serum alanine aminotransferase (ALT) after blood collection. mOX40L expression was measured in splenic T cells.

With `CCCCCCCCCCCCC(O)CN(CCCO)CCCCCCCC(=O)OC(CCCCCCCC)CCCCCCCC` (centres unmarked) [Lipid 1 of Table 10e, heptadecan-9-yl 8-((3-hydroxypropyl)(2-hydroxytetradecyl)amino)octanoate] the “mOX40L transfection in splenic immune cells” value [1] was “comparable or higher levels of mOX40L transfection” and the “mOX40L expression in splenic T cells” value (splenic T cells) was “resulted in expression of mOX40L in splenic T cells”.
